From US9688710B2, “Inhibitors of sodium glucose cotransporter 1” (LEXICON PHARMACEUTICALS, INC., priority 2012, dated 2017)

Assays:
[1] = target: Human sodium/glucose co-transporter type 1 (SGLT1) (Homo sapiens (Human), UniProt P13866); assay: In vitro human SGLT1 inhibition assay (14C-AMG uptake); format: cell-based; set-up: key to SGLT1 (human SGLT1 IC50): ***: a value less than 0.01 μM; **: a value less than 0.1 μM; *: a value less than 1 μM; —: a value not measured or exceeding μM; settings: HEK293 cells expressing human HA-SGLT1, 14C-AMG uptake
Protocol: Human sodium/glucose co-transporter type 1 (SGLT1; accession number NP_000334; GI: 4507031) was cloned into pIRESpuro2 vector for mammalian expression (construct: HA-SGLT1-pIRESpuro2).
HEK293 cells were transfected with the human HA-SGLT1-pIRESpuro2 vector and the bulk stable cell line was selected in presence of 0.5 μg/mL of puromycin. Human HA-SGLT1 cells were maintained in DMEM media containing 10% FBS, 1% GPS and 0.5 μg/mL of puromycin.
The HEK293 cells expressing the human HA-SGLT1 were seeded in 384 well plates (30,000 cells/well) in DMEM media containing 10% FBS, 1% GPS and 0.5 μg/mL of puromycin, then incubated overnight at 37 C, 5% CO2. Cells were then washed with uptake buffer (140 mM NaCl, 2 mM KCl, 1 mM CaCl2, 1 mM MgCl2, 10 mM HEPES, 5 mM Tris, 1 mg/mL bovine serum albumin (BSA), pH 7.3). Twenty microliters of uptake buffer with or without testing compounds were added to the cells. Then, 20 microliters of uptake buffer containing ^14C-AMG (100 nCi) were also added to cells. The cell plates were incubated at 37° C., 5% CO2 for 1-2 hours. After washing the cells with uptake buffer, scintillation fluid was added (40 microliters/well) and ^14C-AMG uptake was measured by counting radioactivity using a scintillation coulter (TopCoulter NXT; Packard Instruments).

[2] = target: Human sodium/glucose co-transporter type 2 (SGLT2) (Homo sapiens (Human), UniProt P31639); assay: In vitro human SGLT2 inhibition assay (14C-AMG uptake); format: cell-based; settings: HEK293 cells expressing human HA-SGLT2, 14C-AMG uptake
Protocol: Human sodium/glucose co-transporter type 2 (SGLT2; accession number P31639; GI:400337) was cloned into pIRESpuro2 vector for mammalian expression (construct: HA-SGLT2-pIRESpuro2).
HEK293 cells were transfected with the human HA-SGLT2-pIRESpuro2 vector and the bulk stable cell line was selected in presence of 0.5 μg/mL of puromycin. Human HA-SGLT2 cells were maintained in DMEM media containing 10% FBS, 1% GPS and 0.5 μg/mL of puromycin.
The HEK293 cells expressing the human HA-SGLT2 were seeded in 384 well plates (30,000 cells/well) in DMEM media containing 10% FBS, 1% GPS and 0.5 μg/mL of puromycin, then incubated overnight at 37 C, 5% CO2. Cells were then washed with uptake buffer (140 mM NaCl, 2 mM KCl, 1 mM CaCl2, 1 mM MgCl2, 10 mM HEPES, 5 mM Tris, 1 mg/mL bovine serum albumin (BSA), pH 7.3). Twenty microliters of uptake buffer with or without testing compounds were added to the cells. Then, 20 microliters of uptake buffer containing ^14C-AMG (100 nCi) were added to the cells. The cell plates were incubated at 37° C., 5% CO2 for 1-2 hours. After washing the cells with uptake buffer, scintillation fluid was added (40 microliters/well) and ^14C-AMG uptake was measured by counting radioactivity using a scintillation coulter (TopCoulter NXT; Packard Instruments).

Sequence of Human sodium/glucose co-transporter type 1 (SGLT1) (P13866 whole entry): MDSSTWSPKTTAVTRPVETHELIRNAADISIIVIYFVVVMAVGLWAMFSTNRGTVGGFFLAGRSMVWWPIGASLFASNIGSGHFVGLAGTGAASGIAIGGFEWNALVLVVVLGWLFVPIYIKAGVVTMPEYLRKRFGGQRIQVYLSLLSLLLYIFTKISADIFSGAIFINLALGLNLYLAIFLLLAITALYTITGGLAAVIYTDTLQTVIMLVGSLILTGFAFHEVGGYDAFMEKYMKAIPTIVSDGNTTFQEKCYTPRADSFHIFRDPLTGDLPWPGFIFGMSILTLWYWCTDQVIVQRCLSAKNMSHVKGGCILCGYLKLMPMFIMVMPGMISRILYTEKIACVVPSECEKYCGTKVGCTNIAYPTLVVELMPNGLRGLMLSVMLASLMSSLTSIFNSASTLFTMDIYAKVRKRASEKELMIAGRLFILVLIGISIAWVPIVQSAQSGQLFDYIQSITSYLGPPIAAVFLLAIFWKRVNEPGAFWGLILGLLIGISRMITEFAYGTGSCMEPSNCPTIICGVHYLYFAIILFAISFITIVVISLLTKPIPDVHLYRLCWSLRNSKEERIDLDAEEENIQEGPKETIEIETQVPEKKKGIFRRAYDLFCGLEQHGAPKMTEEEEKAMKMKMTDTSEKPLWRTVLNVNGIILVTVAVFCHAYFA
Sequence of Human sodium/glucose co-transporter type 2 (SGLT2) (P31639 whole entry): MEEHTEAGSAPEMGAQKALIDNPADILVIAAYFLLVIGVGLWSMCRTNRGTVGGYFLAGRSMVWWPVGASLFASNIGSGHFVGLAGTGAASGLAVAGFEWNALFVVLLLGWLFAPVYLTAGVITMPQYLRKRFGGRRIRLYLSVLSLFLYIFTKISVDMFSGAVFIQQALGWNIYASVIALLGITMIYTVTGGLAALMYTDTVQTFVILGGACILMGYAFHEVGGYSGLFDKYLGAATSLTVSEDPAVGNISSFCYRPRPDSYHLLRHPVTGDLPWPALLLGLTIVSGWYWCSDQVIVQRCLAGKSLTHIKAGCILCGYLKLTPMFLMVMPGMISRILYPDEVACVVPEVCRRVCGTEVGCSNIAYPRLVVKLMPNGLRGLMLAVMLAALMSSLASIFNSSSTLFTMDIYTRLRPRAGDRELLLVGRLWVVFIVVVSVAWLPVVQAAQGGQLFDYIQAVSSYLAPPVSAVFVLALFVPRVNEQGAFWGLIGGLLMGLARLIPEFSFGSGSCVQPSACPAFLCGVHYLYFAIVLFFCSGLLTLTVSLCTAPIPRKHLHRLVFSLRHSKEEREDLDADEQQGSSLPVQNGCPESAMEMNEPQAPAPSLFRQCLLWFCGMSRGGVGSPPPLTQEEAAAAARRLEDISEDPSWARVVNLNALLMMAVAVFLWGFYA

SMILES | IC50 [1] [µM] | IC50 [2] [µM] | SGLT1 (human SGLT1 IC50) [1]
CS[C@H]1O[C@@H](c2ccc(C)c(Cc3ccc(CCCCNCC(C)(C)C(N)=O)cc3)c2)[C@H](O)[C@@H](O)[C@@H]1O [2,2-dimethyl-3-((4-(4-(2-methyl-5-((3R,4R,5S,6R)-3,4,5-trihydroxy-6-(methylthio)tetrahydro-2H-pyran-2-yl)benzyl)phenyl)butyl)amino)propanamide] | < 0.01 | < 0.01 | 
CS[C@H]1O[C@@H](c2ccc(Cl)c(Cc3ccc(OCC(=O)NC(C)(C)C(N)=O)cc3)c2)[C@H](O)[C@@H](O)[C@@H]1O [2-(2-(4-(2-chloro-5-((2S,3R,4R,5S,6R)-3,4,5-trihydroxy-6-(methylthio)tetrahydro-2H-pyran-2-yl)benzyl)phenoxy)acetamido)-2-methylpropanamide] | < 0.1 | < 0.01 | 
CS[C@H]1O[C@@H](c2ccc(Cl)c(Cc3ccc(OCCCNC(=O)NC(C)(C)C(N)=O)cc3)c2)[C@H](O)[C@@H](O)[C@@H]1O [2-(3-(3-(4-(2-chloro-5-((2S,3R,4R,5S,6R)-3,4,5-trihydroxy-6-(methylthio)tetrahydro-2H-pyran-2-yl)benzyl)phenoxy)propyl)ureido)-2-methylpropanamide] | < 0.01 | < 0.01 | 
CS[C@H]1O[C@@H](c2ccc(Cl)c(Cc3ccc(OCC(=O)NC(CO)(CO)CO)cc3)c2)[C@H](O)[C@@H](O)[C@@H]1O [2-(4-(2-chloro-5-((2S,3R,4R,5S,6R)-3,4,5-trihydroxy-6-(methylthio)tetrahydro-2H-pyran-2-yl)benzyl)phenoxy)-N-(1,3-dihydroxy-2-(hydroxymethyl)propan-2-yl)acetamide] | < 0.1 | < 0.01 | 
CS[C@H]1O[C@@H](c2ccc(Cl)c(Cc3ccc(OCC(=O)NC(C)(C)C(=O)N4CCN(C)CC4)cc3)c2)[C@H](O)[C@@H](O)[C@@H]1O [2-(4-(2-chloro-5-((2S,3R,4R,5S,6R)-3,4,5-trihydroxy-6-(methylthio)tetrahydro-2H-pyran-2-yl)benzyl)phenoxy)-N-(2-methyl-1-(4-methylpiperazin-1-yl)-1-oxopropan-2-yl)acetamide] | < 0.1 | < 0.01 | 
CS[C@H]1O[C@@H](c2ccc(Cl)c(Cc3ccc(OCC(=O)O)cc3)c2)[C@H](O)[C@@H](O)[C@@H]1O [2-(4-(2-chloro-5-((2S,3R,4R,5S,6R)-3,4,5-trihydroxy-6-(methylthio)tetrahydro-2H-pyran-2-yl)benzyl)phenoxy)acetic acid] | < 1 | < 0.1 | 
CS[C@H]1O[C@@H](c2ccc(C)c(Cc3ccc(OCC(N)=O)cc3)c2)[C@H](O)[C@@H](O)[C@@H]1O [2-(4-(2-methyl-5-((2S,3R,4R,5S,6R)-3,4,5-trihydroxy-6-(methylthio)tetrahydro-2H-pyran-2-yl)benzyl)phenoxy)acetamide] | < 0.1 | < 0.01 | 
CS[C@H]1O[C@@H](c2ccc(C)c(Cc3ccc(OCC(=O)O)cc3)c2)[C@H](O)[C@@H](O)[C@@H]1O [2-(4-(2-methyl-5-((2S,3R,4R,5S,6R)-3,4,5-trihydroxy-6-(methylthio)tetrahydro-2H-pyran-2-yl)benzyl)phenoxy)acetic acid] |  | < 0.1 | —
CS[C@H]1O[C@@H](c2ccc(Cl)c(Cc3ccc(OCCCC(=O)NC(C)(C)C(=O)O)cc3)c2)[C@H](O)[C@@H](O)[C@@H]1O [2-(4-(4-(2-chloro-5-((2S,3R,4R,5S,6R)-3,4,5-trihydroxy-6-(methylthio)tetrahydro-2H-pyran-2-yl)benzyl)phenoxy)butanamido)-2-methylpropanoic acid] |  | < 0.1 | —
CS[C@H]1O[C@@H](c2ccc(C)c(Cc3ccc(CCCc4nnnn4CC(=O)N4CCN(C)CC4)cc3)c2)[C@H](O)[C@@H](O)[C@@H]1O [2-(5-(3-(4-(2-methyl-5-((2S,3R,4R,5S,6R)-3,4,5-trihydroxy-6-(methylthio)tetrahydro-2H-pyran-2-yl)benzyl)phenyl)propyl)-1H-tetrazol-1-yl)-1-(4-methylpiperazin-1-yl)ethanone] | < 0.01 | < 0.01 | 
CS[C@H]1O[C@@H](c2ccc(C)c(Cc3ccc(CCCc4nnn(CC(=O)N5CCN(C)CC5)n4)cc3)c2)[C@H](O)[C@@H](O)[C@@H]1O [2-(5-(3-(4-(2-methyl-5-((2S,3R,4R,5S,6R)-3,4,5-trihydroxy-6-(methylthio)tetrahydro-2H-pyran-2-yl)benzyl)phenyl)propyl)-2H-tetrazol-2-yl)-1-(4-methylpiperazin-1-yl)ethanone] | < 0.01 | < 0.01 | 
CS[C@H]1O[C@@H](c2ccc(C)c(Cc3ccc(OCC(=O)NC(C)(C)C(N)=O)cc3)c2)[C@H](O)[C@@H](O)[C@@H]1O [2-methyl-2-(2-(4-(2-methyl-5-((2S,3R,4R,5S,6R)-3,4,5-trihydroxy-6-(methylthio)tetrahydro-2H-pyran-2-yl)benzyl)phenoxy)acetamido)propanamide] | < 0.1 | < 0.01 | 
CS[C@H]1O[C@@H](c2ccc(C)c(Cc3ccc(CCCCNC(=O)NC(C)(C)C(N)=O)cc3)c2)[C@H](O)[C@@H](O)[C@@H]1O [2-methyl-2-(3-(4-(4-(2-methyl-5-((2S,3R,4R,5S,6R)-3,4,5-trihydroxy-6-(methylthio)tetrahydro-2H-pyran-2-yl)benzyl)phenyl)butyl)ureido)propanamide] | < 0.01 | < 0.01 | 
CS[C@H]1O[C@@H](c2ccc(C)c(Cc3ccc(CCCCCNC(=O)NC(C)(C)C(N)=O)cc3)c2)[C@H](O)[C@@H](O)[C@@H]1O [2-methyl-2-(3-(5-(4-(2-methyl-5-((2S,3R,4R,5S,6R)-3,4,5-trihydroxy-6-(methylthio)tetrahydro-2H-pyran-2-yl)benzyl)phenyl)pentyl)ureido)propanamide] | < 0.1 | < 0.01 | 
CS[C@H]1O[C@@H](c2ccc(C)c(Cc3ccc(OCCCC(=O)NC(C)(C)C(=O)O)cc3)c2)[C@H](O)[C@@H](O)[C@@H]1O [2-methyl-2-(4-(4-(2-methyl-5-((2S,3R,4R,5S,6R)-3,4,5-trihydroxy-6-(methylthio)tetrahydro-2H-pyran-2-yl)benzyl)phenoxy)butanamido)propanoic acid] | < 0.01 | < 0.01 | 
CS[C@H]1O[C@@H](c2ccc(C)c(Cc3ccc(CCCC(=O)NC(C)(C)C(=O)O)cc3)c2)[C@H](O)[C@@H](O)[C@@H]1O [2-methyl-2-(4-(4-(2-methyl-5-((2S,3R,4R,5S,6R)-3,4,5-trihydroxy-6-(methylthio)tetrahydro-2H-pyran-2-yl)benzyl)phenyl)butanamido)propanoic acid] | < 0.1 | < 0.01 | 
CS[C@H]1O[C@@H](c2ccc(C)c(Cc3ccc(CCCCC(=O)NC(C)(C)C(=O)O)cc3)c2)[C@H](O)[C@@H](O)[C@@H]1O [2-methyl-2-(5-(4-(2-methyl-5-((2S,3R,4R,5S,6R)-3,4,5-trihydroxy-6-(methylthio)tetrahydro-2H-pyran-2-yl)benzyl)phenyl)pentanamido)propanoic acid] |  | < 0.1 | —
CS[C@H]1O[C@@H](c2ccc(C)c(Cc3ccc(CCCCNC(C)(C)C(=O)N4CCN(C)CC4)cc3)c2)[C@H](O)[C@@H](O)[C@@H]1O [2-methyl-2-((4-(4-(2-methyl-5-((2S,3R,4R,5S,6R)-3,4,5-trihydroxy-6-(methylthio)tetrahydro-2H-pyran-2-yl)benzyl)phenyl)butyl)amino)-1-(4-methylpiperazin-1-yl)propan-1-one] | < 0.01 | < 0.01 | 
CS[C@H]1O[C@@H](c2ccc(C)c(Cc3ccc(CCCCNC(=O)C(C)(C)CO)cc3)c2)[C@H](O)[C@@H](O)[C@@H]1O [3-hydroxy-2,2-dimethyl-N-(4-(4-(2-methyl-5-((2S,3R,4R,5S,6R)-3,4,5-trihydroxy-6-(methylthio)tetrahydro-2H-pyran-2-yl)benzyl)phenyl)butyl)propanamide] | < 0.01 | < 0.01 | 
